Reference: PubChem BioAssay AID1963870 (Molecular Pharmacology Branch, DTP, NCI, 2024)

Test system: 292921-168-R-J2-PDC KRAS tumor spheroid viability
Assay: Anticancer human tumor 292921-168-R-J2-PDC patient-derived pancreatic carcinoma cell line growth inhibition [KRAS2]
Conditions: spheroids with HUVEC and MSC; for viability, T/C: stronger effect = lower value
Method in brief: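 Combination screen of spheroid viability in tumor-cell co-cultures with endothelial (HUVEC) and mesenchymal stem cell stroma. Each agent was tested in half-log dilutions, topping at clinical Cmax or at 10 microM without a known Cmax.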

[1] = curve of first compound, second compound 0.1 µM
[2] = curve of first compound, second compound 0.316 µM
[3] = curve of first compound, second compound 1 µM
[4] = curve of first compound, second compound 3.16 µM
[5] = curve of first compound, second compound 10 µM
[6] = second compound 0.1 µM, first compound 0.0316 µM
[7] = second compound 0.1 µM, first compound 0.1 µM
[8] = second compound 0.1 µM, first compound 0.316 µM
[9] = second compound 0.1 µM, first compound 1 µM
[10] = second compound 0.1 µM, first compound 3.16 µM
[11] = second compound 0.1 µM, first compound 10 µM
[12] = second compound 0.316 µM, first compound 0.0316 µM
[13] = second compound 0.316 µM, first compound 0.1 µM
[14] = second compound 0.316 µM, first compound 0.316 µM
[15] = second compound 0.316 µM, first compound 1 µM
[16] = second compound 0.316 µM, first compound 3.16 µM
[17] = second compound 0.316 µM, first compound 10 µM
[18] = second compound 1 µM, first compound 0.0316 µM
[19] = second compound 1 µM, first compound 0.1 µM
[20] = second compound 1 µM, first compound 0.316 µM
[21] = second compound 1 µM, first compound 1 µM
[22] = second compound 1 µM, first compound 3.16 µM
[23] = second compound 1 µM, first compound 10 µM
[24] = second compound 3.16 µM, first compound 0.0316 µM
[25] = second compound 3.16 µM, first compound 0.1 µM
[26] = second compound 3.16 µM, first compound 0.316 µM
[27] = second compound 3.16 µM, first compound 1 µM
[28] = second compound 3.16 µM, first compound 3.16 µM
[29] = second compound 3.16 µM, first compound 10 µM
[30] = second compound 10 µM, first compound 0.0316 µM
[31] = second compound 10 µM, first compound 0.1 µM
[32] = curve of first compound, second compound 0.0316 µM
[33] = second compound 0.0316 µM, first compound 0.0316 µM
[34] = second compound 0.0316 µM, first compound 0.1 µM
[35] = second compound 0.0316 µM, first compound 0.316 µM
[36] = second compound 0.0316 µM, first compound 1 µM
[37] = second compound 0.0316 µM, first compound 3.16 µM
[38] = second compound 0.0316 µM, first compound 10 µM
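Note: drug exposure lasted seven days after spheroids formed for three days.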
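Throughout, for viability, T/C: percent of DMSO vehicle control viability which is 100%.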

Compound `COc1cc(Nc2ncc3c(n2)-c2ccc(Cl)cc2C(c2c(F)cccc2OC)=NC3)ccc1C(=O)O` + C=CC(=O)N1CCN(c2nc(=O)n(-c3c(C)ccnc3C(C)C)c3nc(-c4c(O)cccc4F)c(F)cc23)C(C)C1 has an IC50 [1] of under 0.0316 µM, an IC50 [2] of under 0.0316 µM and an IC50 [3] of under 0.0316 µM. For the same compound, the IC50 [4] was under 0.0316 µM, the IC50 [5] was under 0.0316 µM and the viability, T/C [6] was 33.5%. For the same compound, the viability, T/C [7] was 34.2%, the viability, T/C [8] was 41.3% and the viability, T/C [9] was 40.8%. For the same compound, the viability, T/C [10] was 34.8%, the viability, T/C [11] was 26.4% and the viability, T/C [12] was 35.9%. For the same compound, the viability, T/C [13] was 33.3%, the viability, T/C [14] was 37.4% and the viability, T/C [15] was 40.2%. The viability, T/C [16] was 40.3%, the viability, T/C [17] was 29.9% and the viability, T/C [18] was 41.8%. It also gave a viability, T/C [19] of 35.6%, a viability, T/C [20] of 40.1% and a viability, T/C [21] of 39.4%. The viability, T/C [22] was 32.3%, the viability, T/C [23] was 30.6% and the viability, T/C [24] was 36.8%. It also gave a viability, T/C [25] of 31.5%, a viability, T/C [26] of 34.8% and a viability, T/C [27] of 38%. It also gave a viability, T/C [28] of 35.2%, a viability, T/C [29] of 29.5% and a viability, T/C [30] of 22.9%. The viability, T/C [31] was 30.9%, the viability, T/C (second compound 10 µM, first compound 0.316 µM) was 35.2% and the viability, T/C (second compound 10 µM, first compound 1 µM) was 34.5%. For the same compound, the viability, T/C (second compound 10 µM, first compound 3.16 µM) was 31.8% and the viability, T/C (second compound 10 µM, first compound 10 µM) was 30%.

For `CC(C)n1nc(-c2ccc3oc(N)nc3c2)c2c(N)ncnc21` + C=CC(=O)N1CCN(c2nc(=O)n(-c3c(C)ccnc3C(C)C)c3nc(-c4c(O)cccc4F)c(F)cc23)C(C)C1, the IC50 [1] was 0.00689 µM, the IC50 [2] was 0.00961 µM and the IC50 [3] was 0.0117 µM. The IC50 [4] was 0.00493 µM, the IC50 [5] was under 0.000316 µM and the viability, T/C (second compound 0.1 µM, first compound 0.000316 µM) was 107%. The viability, T/C (second compound 0.1 µM, first compound 0.001 µM) was 88.6%, the viability, T/C (second compound 0.1 µM, first compound 0.00316 µM) was 62% and the viability, T/C (second compound 0.1 µM, first compound 0.01 µM) was 44.5%. For the same compound, the viability, T/C [6] was 32.8%, the viability, T/C [7] was 27% and the viability, T/C (second compound 0.316 µM, first compound 0.000316 µM) was 111%. For the same compound, the viability, T/C (second compound 0.316 µM, first compound 0.001 µM) was 99.7%, the viability, T/C (second compound 0.316 µM, first compound 0.00316 µM) was 66.9% and the viability, T/C (second compound 0.316 µM, first compound 0.01 µM) was 53.6%. For the same compound, the viability, T/C [12] was 33.6%, the viability, T/C [13] was 29.7% and the viability, T/C (second compound 1 µM, first compound 0.000316 µM) was 121%. For the same compound, the viability, T/C (second compound 1 µM, first compound 0.001 µM) was 99.7%, the viability, T/C (second compound 1 µM, first compound 0.00316 µM) was 77.1% and the viability, T/C (second compound 1 µM, first compound 0.01 µM) was 50.4%. For the same compound, the viability, T/C [18] was 38.3%, the viability, T/C [19] was 32.3% and the viability, T/C (second compound 3.16 µM, first compound 0.000316 µM) was 68.4%. It also gave a viability, T/C (second compound 3.16 µM, first compound 0.001 µM) of 72.6%, a viability, T/C (second compound 3.16 µM, first compound 0.00316 µM) of 55.3% and a viability, T/C (second compound 3.16 µM, first compound 0.01 µM) of 40.1%. The viability, T/C [24] was 36.7%, the viability, T/C [25] was 30.9% and the viability, T/C (second compound 10 µM, first compound 0.000316 µM) was 26.3%. For the same compound, the viability, T/C (second compound 10 µM, first compound 0.001 µM) was 33.3%, the viability, T/C (second compound 10 µM, first compound 0.00316 µM) was 30% and the viability, T/C (second compound 10 µM, first compound 0.01 µM) was 31.2%. For the same compound, the viability, T/C [30] was 29.5% and the viability, T/C [31] was 27.1%.

For `C=CC(=O)N1CCN(c2nc(OCC3CCCN3C)nc3c2CCN(c2cccc4cccc(C)c24)C3)CC1CC#N` (configuration not stated), the IC50 (compound alone, run of 08/26/2021) was 821 nM [middle of 5 runs] and the IC50 (compound alone, run of 09/02/2021) was 647 nM [middle of 5 runs].

In the case of `CC1OCC2(CCN(c3cnc(Sc4ccnc(N)c4Cl)c(N)n3)CC2)C1N` (configuration not stated) + C=CC(=O)N1CCN(c2nc(OCC3CCCN3C)nc3c2CCN(c2cccc4cccc(C)c24)C3)CC1CC#N, the IC50 [32] is reported as 0.384 µM, the IC50 [1] is reported as 0.227 µM and the IC50 [2] is reported as 0.0946 µM. The IC50 [3] was under 0.0316 µM, the IC50 [4] was under 0.0316 µM and the viability, T/C [33] was 92.1%. The viability, T/C [34] was 68%, the viability, T/C [35] was 48.8% and the viability, T/C [36] was 45.6%. The viability, T/C [37] was 32.9%, the viability, T/C [38] was 28.4% and the viability, T/C [6] was 82.9%. For the same compound, the viability, T/C [7] was 61.2%, the viability, T/C [8] was 43.8% and the viability, T/C [9] was 36.9%. For the same compound, the viability, T/C [10] was 37.6%, the viability, T/C [11] was 26.8% and the viability, T/C [12] was 66.1%. It also gave a viability, T/C [13] of 47.8%, a viability, T/C [14] of 37.4% and a viability, T/C [15] of 37.3%. It also gave a viability, T/C [16] of 27.5%, a viability, T/C [17] of 25.3% and a viability, T/C [18] of 20.5%. For the same compound, the viability, T/C [19] was 18.6%, the viability, T/C [20] was 16.4% and the viability, T/C [21] was 17.4%. The viability, T/C [22] was 16.1%, the viability, T/C [23] was 15.8% and the viability, T/C [24] was 0.11%. For the same compound, the viability, T/C [25] was 0.11%, the viability, T/C [26] was 0.11% and the viability, T/C [27] was 0.1%. The viability, T/C [28] was 0.11% and the viability, T/C [29] was 0.17%.

`Cn1nccc1Nc1nccc(-c2cc3c(s2)C(C)(C)N(CCN2CCOCC2)C3=O)n1` + C=CC(=O)N1CCN(c2nc(OCC3CCCN3C)nc3c2CCN(c2cccc4cccc(C)c24)C3)CC1CC#N gave an IC50 [32] of 0.0931 µM, an IC50 [1] of 0.0778 µM and an IC50 [2] of 0.059 µM. It also gave an IC50 [3] of under 0.0316 µM, an IC50 [4] of under 0.0316 µM and a viability, T/C [33] of 86.7%. For the same compound, the viability, T/C [34] was 47.5%, the viability, T/C [35] was 20.6% and the viability, T/C [36] was 13%. The viability, T/C [37] was 11.6%, the viability, T/C [38] was 11.9% and the viability, T/C [6] was 80.2%. It also gave a viability, T/C [7] of 41.4%, a viability, T/C [8] of 21.6% and a viability, T/C [9] of 12.5%. It also gave a viability, T/C [10] of 11.1%, a viability, T/C [11] of 11.6% and a viability, T/C [12] of 63.5%. It also gave a viability, T/C [13] of 38.6%, a viability, T/C [14] of 16.2% and a viability, T/C [15] of 12.2%. For the same compound, the viability, T/C [16] was 9.88%, the viability, T/C [17] was 11.9% and the viability, T/C [18] was 30.9%. The viability, T/C [19] was 18.4%, the viability, T/C [20] was 8.49% and the viability, T/C [21] was 8.54%. For the same compound, the viability, T/C [22] was 7.25%, the viability, T/C [23] was 8.46% and the viability, T/C [24] was 0.45%. It also gave a viability, T/C [25] of 0.11%, a viability, T/C [26] of 0.11% and a viability, T/C [27] of 0.1%. For the same compound, the viability, T/C [28] was 0.1% and the viability, T/C [29] was 0.16%.
